Measurements reported in patent publication US20260028365A1 (BIOGEN MA INC., priority 2022, published 2026).
Where a name gives a salt, the structure may show the parent alone. Read-outs that look alike come from different tables or passages of the source.

Experiments:
JH2 domain of human Tyk2 = JH2 domain of human Tyk2 (Homo sapiens (Human), UniProt P29597); assay: JH2 Biochemical Assay (TR-FRET probe displacement); format: binding
Tyk2 = Tyk2 (Homo sapiens (Human), UniProt P29597); assay: pSTAT4 Cell Assay (MSD, NK92 cells); format: cell-based
[1] = TR-FRET probe displacement, JH2 domain of human Tyk2
[2] = TR-FRET probe displacement, JH2 domain
[3] = JH2 domain of human Tyk2, TR-FRET probe displacement

Sequence of JH2 domain of human Tyk2 (P29597 575-876): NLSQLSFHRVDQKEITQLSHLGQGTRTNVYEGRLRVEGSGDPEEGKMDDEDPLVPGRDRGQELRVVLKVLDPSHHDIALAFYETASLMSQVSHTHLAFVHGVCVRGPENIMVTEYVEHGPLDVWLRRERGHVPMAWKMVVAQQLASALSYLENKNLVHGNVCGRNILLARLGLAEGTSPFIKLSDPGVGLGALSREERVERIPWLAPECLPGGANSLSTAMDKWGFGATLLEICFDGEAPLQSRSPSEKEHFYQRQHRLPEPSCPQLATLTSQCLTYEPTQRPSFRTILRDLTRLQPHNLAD
Sequence of Tyk2 (P29597 whole entry, the tested form may be a part): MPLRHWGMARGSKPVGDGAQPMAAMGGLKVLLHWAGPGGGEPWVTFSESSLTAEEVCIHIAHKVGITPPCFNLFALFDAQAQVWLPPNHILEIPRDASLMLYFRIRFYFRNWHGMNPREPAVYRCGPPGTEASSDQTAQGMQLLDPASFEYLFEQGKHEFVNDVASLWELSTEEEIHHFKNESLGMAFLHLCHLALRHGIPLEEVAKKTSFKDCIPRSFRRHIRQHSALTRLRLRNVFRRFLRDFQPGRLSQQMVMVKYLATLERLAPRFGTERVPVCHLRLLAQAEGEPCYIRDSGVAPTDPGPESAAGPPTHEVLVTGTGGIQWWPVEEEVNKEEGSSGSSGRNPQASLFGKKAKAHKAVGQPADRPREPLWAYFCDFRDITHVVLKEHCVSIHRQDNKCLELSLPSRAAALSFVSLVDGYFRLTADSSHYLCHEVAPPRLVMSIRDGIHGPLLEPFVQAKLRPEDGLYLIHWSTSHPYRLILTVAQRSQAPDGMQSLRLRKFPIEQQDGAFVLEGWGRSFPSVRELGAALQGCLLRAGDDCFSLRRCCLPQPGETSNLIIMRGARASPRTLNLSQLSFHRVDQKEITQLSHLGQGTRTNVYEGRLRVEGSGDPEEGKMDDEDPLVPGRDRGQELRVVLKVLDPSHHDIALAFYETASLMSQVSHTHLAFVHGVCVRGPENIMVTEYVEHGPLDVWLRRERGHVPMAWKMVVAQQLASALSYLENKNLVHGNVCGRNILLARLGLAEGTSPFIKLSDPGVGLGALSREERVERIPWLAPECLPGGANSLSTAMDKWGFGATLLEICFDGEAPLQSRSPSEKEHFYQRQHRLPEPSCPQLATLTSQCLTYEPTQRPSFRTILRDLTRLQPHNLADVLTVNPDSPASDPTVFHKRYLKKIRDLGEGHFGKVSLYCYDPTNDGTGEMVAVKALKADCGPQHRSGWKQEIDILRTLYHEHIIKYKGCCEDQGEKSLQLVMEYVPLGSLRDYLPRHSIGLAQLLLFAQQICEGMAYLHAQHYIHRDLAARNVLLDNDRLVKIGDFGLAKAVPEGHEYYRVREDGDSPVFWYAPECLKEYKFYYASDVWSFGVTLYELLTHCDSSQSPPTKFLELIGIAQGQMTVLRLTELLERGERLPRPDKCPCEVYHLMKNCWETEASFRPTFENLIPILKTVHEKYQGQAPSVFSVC

## CC(=O)Nc1cc(Nc2ccnc(C(C)(F)F)c2)c(-c2ncc(F)cn2)cn1 [Example 187, N-(4-((2-(1,1-difluoroethyl)pyridin-4-yl)amino)-5-(5-fluoropyrimidin-2-yl)pyridin-2-yl)acetamide]
JH2 domain of human Tyk2; [1]
  IC50: 10 to 100 nM
Tyk2; MSD
  IC50: ≥ 1000 nM

## COc1ccc(-c2cnc(NC(C)=O)cc2Nc2cc(C(C)C)nc(C(C)(F)F)n2)nn1 [Example 832, N-(4-((2-(1,1-difluoroethyl)-6-isopropylpyrimidin-4-yl)amino)-5-(6-methoxypyridazin-3-yl)pyridin-2-yl)acetamide]
JH2 domain of human Tyk2; [2]
  IC50: ≤ 10 nM
Tyk2
  IC50: ≤ 10 nM

## COc1ccnc(Nc2cc(NC(C)=O)ncc2-c2ccn(C)n2)n1 [Example 553, N-(4-((4-methoxypyrimidin-2-yl)amino)-5-(1-methyl-1H-pyrazol-3-yl)pyridin-2-yl)acetamide]
JH2 domain of human Tyk2; [3]
  IC50: 10 to 100 nM
Tyk2; MSD
  IC50: 100 to 1000 nM

## COCCOc1ccc(-c2cnc(NC(C)=O)cc2Nc2ccnc(C(C)(F)F)n2)nc1 [Example 523, N-(4′-((2-(1,1-difluoroethyl)pyrimidin-4-yl)amino)-5-(2-methoxyethoxy)-[2,3′-bipyridin]-6′-yl)acetamide]
JH2 domain of human Tyk2; [3]
  IC50: ≤ 10 nM
Tyk2; MSD
  IC50: ≤ 10 nM

## CC(=O)Nc1cc(Nc2cc(C)nc(C(C)(F)F)n2)c(-c2nnc(C(C)(C)C)s2)cn1 [Example 611, N-(5-(5-(tert-butyl)-1,3,4-thiadiazol-2-yl)-4-((2-(1,1-difluoroethyl)-6-methylpyrimidin-4-yl)amino)pyridin-2-yl)acetamide]
JH2 domain of human Tyk2; [3]
  IC50: ≤ 10 nM
Tyk2; MSD
  IC50: ≤ 10 nM

## CC(=O)Nc1cc(Nc2cc(C)nc(C(C)(F)F)n2)c(-c2nsc(N(C)C)n2)cn1 [Example 763, N-(4-((2-(1,1-difluoroethyl)-6-methylpyrimidin-4-yl)amino)-5-(5-(dimethylamino)-1,2,4-thiadiazol-3-yl)pyridin-2-yl)acetamide]
JH2 domain of human Tyk2; [2]
  IC50: ≤ 10 nM
Tyk2
  IC50: 100 to 1000 nM

## COc1nn(C)cc1COc1cnc(NC(C)=O)cc1Nc1cc(C)nc(C(C)(F)F)n1 [Example 512, N-(4-((2-(1,1-difluoroethyl)-6-methylpyrimidin-4-yl)amino)-5-((3-methoxy-1-methyl-1H-pyrazol-4-yl)methoxy)pyridin-2-yl)acetamide]
JH2 domain of human Tyk2; [3]
  IC50: 100 to 1000 nM
Tyk2; MSD
  IC50: 100 to 1000 nM

## COc1cnn(-c2cnc(NC(C)=O)cc2Nc2ccnc(C(C)(F)F)n2)c1 [Example 730, N-(4-((2-(1,1-difluoroethyl)pyrimidin-4-yl)amino)-5-(4-methoxy-1H-pyrazol-1-yl)pyridin-2-yl)acetamide]
JH2 domain of human Tyk2; [3]
  IC50: 10 to 100 nM
Tyk2; MSD
  IC50: 100 to 1000 nM

## CC(=O)Nc1cc(Nc2cc(C)nc(C(C)(F)F)n2)c(-c2cc3n(n2)CCN(C(C)=O)C3)cn1 [Example 222, N-(5-(5-acetyl-4,5,6,7-tetrahydropyrazolo[1,5-a]pyrazin-2-yl)-4-((2-(1,1-difluoroethyl)-6-methylpyrimidin-4-yl)amino)pyridin-2-yl)acetamide trifluoroacetate]
JH2 domain of human Tyk2; [1]
  IC50: ≤ 10 nM
Tyk2; MSD
  IC50: ≤ 10 nM

## COc1cnc(NC(C)=O)cc1Nc1cc(-c2cnn(C3COC3)c2)nc(C(C)(F)F)n1 [Example 377, N-(4-((2-(1,1-difluoroethyl)-6-(1-(oxetan-3-yl)-1H-pyrazol-4-yl)pyrimidin-4-yl)amino)-5-methoxypyridin-2-yl)acetamide]
JH2 domain of human Tyk2; [3]
  IC50: 10 to 100 nM
Tyk2; MSD
  IC50: 10 to 100 nM

## CC(=O)Nc1cc(Nc2cc(C)nc(C(C)(F)F)n2)c(OCc2cncc(F)c2)cn1 [Example 474, N-(4-((2-(1,1-difluoroethyl)-6-methylpyrimidin-4-yl)amino)-5-((5-fluoropyridin-3-yl)methoxy)pyridin-2-yl)acetamide]
JH2 domain of human Tyk2; [3]
  IC50: ≤ 10 nM
Tyk2; MSD
  IC50: 10 to 100 nM

## COCCn1cc(-c2cc(Nc3cc(NC(C)=O)ncc3OC)nc(C(C)(F)F)n2)cn1 [Example 386, N-(4-((2-(1,1-difluoroethyl)-6-(1-(2-methoxyethyl)-1H-pyrazol-4-yl)pyrimidin-4-yl)amino)-5-methoxypyridin-2-yl)acetamide]
JH2 domain of human Tyk2; [3]
  IC50: ≤ 10 nM
Tyk2; MSD
  IC50: 10 to 100 nM

## COC1CC(COc2cnc(NC(C)=O)cc2Nc2cc(C)nc(C(C)(F)F)n2)C1 (centres unmarked) [Example 40, N-(4-((2-(1,1-difluoroethyl)-6-methylpyrimidin-4-yl)amino)-5-((3-methoxycyclobutyl)methoxy)pyridin-2-yl)acetamide]
JH2 domain of human Tyk2; [1]
  IC50: ≤ 10 nM
Tyk2; MSD
  IC50: 10 to 100 nM

## COc1cnc(NC(C)=O)cc1Nc1cc(-c2cn[nH]c2F)nc(C(C)(F)F)n1 [Example 385, N-(4-((2-(1,1-difluoroethyl)-6-(5-fluoro-1H-pyrazol-4-yl)pyrimidin-4-yl)amino)-5-methoxypyridin-2-yl)acetamide]
JH2 domain of human Tyk2; [3]
  IC50: 10 to 100 nM
Tyk2; MSD
  IC50: 100 to 1000 nM

## CC(=O)Nc1cc(Nc2ccnc(C(C)(F)F)n2)c(-c2ccc(N3CCCC3)nn2)cn1 [Example 845, N-(4-((2-(1,1-difluoroethyl)pyrimidin-4-yl)amino)-5-(6-(pyrrolidin-1-yl)pyridazin-3-yl)pyridin-2-yl)acetamide]
JH2 domain of human Tyk2; [2]
  IC50: ≤ 10 nM
Tyk2
  IC50: ≤ 10 nM

## CC(=O)Nc1cc(Nc2cc(C)nc(C(C)(F)F)n2)c(OCc2ccn(C)n2)cn1 [Example 475, N-(4-((2-(1,1-difluoroethyl)-6-methylpyrimidin-4-yl)amino)-5-((1-methyl-1H-pyrazol-3-yl)methoxy)pyridin-2-yl)acetamide]
JH2 domain of human Tyk2; [3]
  IC50: ≤ 10 nM
Tyk2; MSD
  IC50: 10 to 100 nM

## COC(C)(C)c1cc(-c2cnc(NC(C)=O)cc2Nc2cc(C)nc(C(C)(F)F)n2)ncn1 [Example 264, N-(4-((2-(1,1-difluoroethyl)-6-methylpyrimidin-4-yl)amino)-5-(6-(2-methoxypropan-2-yl)pyrimidin-4-yl)pyridin-2-yl)acetamide]
JH2 domain of human Tyk2; [1]
  IC50: 100 to 1000 nM
Tyk2; MSD
  IC50: 100 to 1000 nM

## CC(=O)Nc1cc(Nc2cc(C(C)C)nc(C(C)(F)F)n2)c(O[C@H]2C[C@@H](F)C2)cn1 [Example 411, N-(4-((2-(1,1-difluoroethyl)-6-isopropylpyrimidin-4-yl)amino)-5-((1s,3s)-3-fluorocyclobutoxy)pyridin-2-yl)acetamide]
JH2 domain of human Tyk2; [3]
  IC50: ≤ 10 nM
Tyk2; MSD
  IC50: 10 to 100 nM

## CC(=O)Nc1cc(Nc2ccnc(C(C)(F)F)n2)c(-c2cnc(N3C[C@H]4C[C@@H](C3)O4)cn2)cn1 [Example 887, N-(5-(5-((1R,5S)-6-oxa-3-azabicyclo[3.1.1]heptan-3-yl)pyrazin-2-yl)-4-((2-(1,1-difluoroethyl)pyrimidin-4-yl)amino)pyridin-2-yl)acetamide]
JH2 domain of human Tyk2; [2]
  IC50: ≤ 10 nM
Tyk2
  IC50: 10 to 100 nM

## C=C(F)c1cncc(Nc2cc(NC(C)=O)ncc2OCCOC)n1 [Example 90, N-(4-((6-(1-fluorovinyl)pyrazin-2-yl)amino)-5-(2-methoxyethoxy)pyridin-2-yl)acetamide]
JH2 domain of human Tyk2; [1]
  IC50: ≤ 10 nM
Tyk2; MSD
  IC50: 100 to 1000 nM

## CCOc1cnc(NC(C)=O)cc1Nc1cc(OC2CC(C)C2)nc(C(C)(F)F)n1 (centres unmarked) [Example 464, N-(4-((2-(1,1-difluoroethyl)-6-(3-methylcyclobutoxy)pyrimidin-4-yl)amino)-5-ethoxypyridin-2-yl)acetamide]
JH2 domain of human Tyk2; [3]
  IC50: ≤ 10 nM
Tyk2; MSD
  IC50: ≤ 10 nM

## CCc1cc(Nc2cc(NC(=O)NC)ncc2-c2cnccn2)nc(C(C)(F)F)n1 [Example 919, 1-(4-((2-(1,1-difluoroethyl)-6-ethylpyrimidin-4-yl)amino)-5-(pyrazin-2-yl)pyridin-2-yl)-3-methylurea]
JH2 domain of human Tyk2; [2]
  IC50: ≤ 10 nM
Tyk2
  IC50: 10 to 100 nM

## CC(=O)Nc1cc(Nc2cc(C)nc(C(C)(F)F)n2)c(OCCOC(C)C)cn1 [Example 482, N-(4-((2-(1,1-difluoroethyl)-6-methylpyrimidin-4-yl)amino)-5-(2-isopropoxyethoxy)pyridin-2-yl)acetamide]
JH2 domain of human Tyk2; [3]
  IC50: ≤ 10 nM
Tyk2; MSD
  IC50: 10 to 100 nM

## CC(=O)Nc1cc(Nc2cc(C)nc(C(C)(F)F)n2)c(-c2ccc3c(n2)CCC3=O)cn1 [Example 677, N-(4-((2-(1,1-difluoroethyl)-6-methylpyrimidin-4-yl)amino)-5-(5-oxO6,7-dihydrO5H-cyclopenta[b]pyridin-2-yl)pyridin-2-yl)acetamide]
JH2 domain of human Tyk2; [3]
  IC50: ≤ 10 nM
Tyk2; MSD
  IC50: ≤ 10 nM

## CO[C@H]1CC[C@@H](Oc2cnc(NC(C)=O)cc2Nc2cc(C)nc(C(C)(F)F)n2)C1 [Example 513, N-(4-((2-(1,1-difluoroethyl)-6-methylpyrimidin-4-yl)amino)-5-(((1R,3S)-3-methoxycyclopentyl)oxy)pyridin-2-yl)acetamide]
JH2 domain of human Tyk2; [3]
  IC50: ≤ 10 nM
Tyk2; MSD
  IC50: 10 to 100 nM

## CC(=O)Nc1cc(Nc2cc(C)nc(C(C)(F)F)n2)c(OC[C@@H](C)OC(C)(C)C)cn1 [Example 321, (R)-N-(5-(2-(tert-butoxy)propoxy)-4-((2-(1,1-difluoroethyl)-6-methylpyrimidin-4-yl)amino)pyridin-2-yl)acetamide]
JH2 domain of human Tyk2; [1]
  IC50: ≤ 10 nM
Tyk2; MSD
  IC50: 10 to 100 nM

## CC(=O)Nc1cc(Nc2cc(C)nc(C(C)(F)F)n2)c(-c2nc(C)co2)cn1 [Example 592, N-(4-((2-(1,1-difluoroethyl)-6-methylpyrimidin-4-yl)amino)-5-(4-methyloxazol-2-yl)pyridin-2-yl)acetamide]
JH2 domain of human Tyk2; [3]
  IC50: ≤ 10 nM
Tyk2; MSD
  IC50: 10 to 100 nM

## COCc1cnc(NC(C)=O)cc1Nc1ccc(-c2ccn(C)n2)c(OC)n1 [Example 48, N-(4-((6-methoxy-5-(1-methyl-1H-pyrazol-3-yl)pyridin-2-yl)amino)-5-(methoxymethyl)pyridin-2-yl)acetamide]
JH2 domain of human Tyk2; [1]
  IC50: 100 to 1000 nM
Tyk2; MSD
  IC50: ≥ 1000 nM

## CC(=O)Nc1cc(Nc2cc(C)nc(C(C)(F)F)n2)c(-c2csc(N3CCOCC3)n2)cn1 [Example 234, N-(4-((2-(1,1-difluoroethyl)-6-methylpyrimidin-4-yl)amino)-5-(2-morpholinothiazol-4-yl)pyridin-2-yl)acetamide]
JH2 domain of human Tyk2; [1]
  IC50: ≤ 10 nM
Tyk2; MSD
  IC50: ≤ 10 nM

## CCOc1cnc(NC(C)=O)cc1Nc1cc(-c2cnn(C3CCC3)c2)nc(C(C)(F)F)n1 [Example 312, N-(4-((6-(1-cyclobutyl-1H-pyrazol-4-yl)-2-(1,1-difluoroethyl)pyrimidin-4-yl)amino)-5-ethoxypyridin-2-yl)acetamide]
JH2 domain of human Tyk2; [1]
  IC50: ≤ 10 nM
Tyk2; MSD
  IC50: ≤ 10 nM

## CC(=O)Nc1cc(Nc2cc(OC3CC3)nc(C(C)(F)F)n2)c(OC(F)(F)F)cn1 [Example 93, N-(4-((6-cyclopropoxy-2-(1,1-difluoroethyl)pyrimidin-4-yl)amino)-5-(trifluoromethoxy)pyridin-2-yl)acetamide]
JH2 domain of human Tyk2; [1]
  IC50: ≤ 10 nM
Tyk2; MSD
  IC50: 100 to 1000 nM
